How the values were obtained:
[1] = target: T1, pro-uPA and plasminogen (Homo sapiens, UniProt P00747); test: Fibrinolytic activity in vitro (reciprocal activation of pro-uPA and plasminogen, urokinase activity by chromogenic substrate S-2444); type: biochemical; conditions: for EC50 (fibrinolytic activity): in vitro, slope of kinetic curve A405 nm, S-2444, mean of two independent experiments; for fibrinolytic activity (in words): compared with FGFC1
T1 construct: purchased Sigma Aldrich (China)
Description: To evaluate the antithrombotic effect, all the synthesized FGFC1 derivatives were tested for their fibrinolytic activities in vitro. Fibrinolytic activity of each compound was expressed as 50% effective concentration (EC50), and FGFC1 was used as a positive control. The reciprocal activation of pro-uPA catalyzed plasminogen, which was measured based on urokinase activity by a chromogenic substrate S-2444. EC50 was calculated with the slope of kinetic curve of enzymatic reaction based on the reciprocal activation of pro-uPA and plasminogen (Figure 1 and Figure 2). The effect of introducing different hydrophobic moieties/groups to C-2, C-2′ and C-1′′ positions of FGFC1 was investigated by replacement of the protons on C2-OH/C2′-OH moieties and C1′′-COOH position, with methyl, ethyl, propyl, and bromo-substituted benzyl halide groups to yield derivatives F1–F7 (purity > 98% by HPLC analysis), which presented different urokinase activities and reciprocal activation of Pro-uPA-catalyzed plasminogen in vitro.
The fibrinolytic activities of compounds FGFC1 and derivatives F1–F7 were evaluated by plasmin method. Tris-HCl buffer solution (100 mmol/L, NaCl, pH 7.4), plasminogen (plg), BSA, and S-2444 were used as substrates. Derivatives F1–F7 dissolved in 0.05 mol/L Tris-HCl buffer containing NaCl (100 mmol/L) at pH 7.4 and the BSA used as a substrate.The concentrations of plg, BSA and S-2444 were 1.5 μmol/L, 5 μmol/L and 4 nmol/L, respectively. They were prepared in a 96-well microplate. After the predetermined sample solutions (compounds FGFC1 and F1–F7) were added, pro-uPA (20 μmol/L) was added into the 96-well microplate. The microplate was then cultivated at 37 °C for 60 min. The continuous variation trend of absorbance was determined for evaluation of fibrinolytic activity on the slope of the plots of A405 nm within 150 min. In the blank group, an equal volume of Tris-HCl solution was used as a blank control. All sample solutions were prepared by adding a small amount of DMSO (<5%, v/v) solution to dissolve the derivatives.

[2] = tested on: IL-1; test: IL-1 ELISA assay on HeLa cells; type: cell-based, human; conditions: Figure 2C, compared with blank and FGFC1
Description: (§1) The cytotoxicity of FGFC1 and derivative F6 on HeLa cell lines was screened by MTT assay. […] The introduction of substituted benzyl halide to the C-2, C-2′ and C-1″ position of FGFC1 decreased cytotoxicity, which increased with increasing concentration (0.25, 0.5, 1.0 mg/mL). Moreover, to evaluate the possible apoptosis of HeLa cells induced by F6, Fas/APO-1 (a type of cell-surface NGF/TNF receptor in cancer cell) assay was carried out (Figure 2B). To evaluate the immunogenic (inflammation) property, interleukin (IL-1) levels of derivative F6 was also tested by the IL-1 assays (Figure 2C). […] This meant that the ability of F6 to induce apoptosis was weaker than that of FGFC1. […] According to Figure 2B and Figure 2C, the negative effect of F6 on tissue cell was weaker than that of FGFC1.
The cell culture method on the 96-well plate is in accordance with that in the MTT assay. The Elisa kit assay based on IL-1 of HeLa cells was consistent with the Fas/Apo-1 Elisa kit assay.

[3] = tested on: HeLa cells; test: MTT cytotoxicity assay on HeLa cells; type: cell-based, human; conditions: 0.25, 0.5, 1.0 mg/mL, Figure 2A
Description: as §1
HeLa (human cervical carcinoma) cells were incubated in medium (10% fetal bovine serum, 1% penicillin, 1% streptomycin) at 37 °C with 95% air and 5% CO2. Cells were passaged every 2–3 d and select exponential growth cells were used for further experiments.
The cell growth inhibitory activity of FGFC1 and derivative F6 on HeLa cell lines were determined by the MTT (3-(4,5-dimethylthiazol-2yl)-2,5-diphenyl tetrazolium bromide) assay as we previously reported. In addition, an equal volume of DMEM medium was added to the blank group.

[4] = tested on: Fas/Apo-1; test: Fas/Apo-1 ELISA assay on HeLa cells; type: cell-based, human; conditions: Figure 2B, compared with blank and FGFC1
Description: as §1
Fas/Apo-1 assay was carried out according to the manufacturer’s protocol. A blank control group was set up. It was not added with the samples (FGFC1 and derivative F6) and the enzyme standard reagent, and the other steps were the same. The standard curve group and the sample group were tested. On the 96-well plate, the standard curve group was supplemented with 50 μL of the standard. […] After the addition of stop solution to reaction wells, the absorbance was recorded at OD 450 nm on an Enzyme-Labeled (microplate reader) Instrument after 15 min.

T1 sequence (P00747 20-810 limits assumed): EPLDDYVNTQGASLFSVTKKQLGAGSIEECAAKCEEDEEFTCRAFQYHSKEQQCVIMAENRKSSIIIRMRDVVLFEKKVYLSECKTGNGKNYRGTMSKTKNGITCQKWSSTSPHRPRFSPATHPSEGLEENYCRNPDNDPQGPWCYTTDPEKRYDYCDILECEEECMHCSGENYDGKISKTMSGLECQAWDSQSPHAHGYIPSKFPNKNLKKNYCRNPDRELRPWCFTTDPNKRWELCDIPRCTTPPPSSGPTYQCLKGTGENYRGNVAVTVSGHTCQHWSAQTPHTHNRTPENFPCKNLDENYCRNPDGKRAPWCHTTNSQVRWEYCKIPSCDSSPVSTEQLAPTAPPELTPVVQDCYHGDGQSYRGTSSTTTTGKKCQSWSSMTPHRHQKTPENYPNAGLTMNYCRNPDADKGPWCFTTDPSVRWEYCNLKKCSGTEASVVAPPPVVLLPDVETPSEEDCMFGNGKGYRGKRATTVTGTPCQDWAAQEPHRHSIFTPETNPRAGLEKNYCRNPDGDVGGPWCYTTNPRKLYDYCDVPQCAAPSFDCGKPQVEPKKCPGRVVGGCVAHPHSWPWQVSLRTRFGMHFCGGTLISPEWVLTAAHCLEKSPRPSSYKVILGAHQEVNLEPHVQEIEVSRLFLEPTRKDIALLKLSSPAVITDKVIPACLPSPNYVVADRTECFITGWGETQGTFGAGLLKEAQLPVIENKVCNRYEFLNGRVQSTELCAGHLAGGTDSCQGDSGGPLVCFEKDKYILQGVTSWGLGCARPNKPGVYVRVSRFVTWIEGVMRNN

EC50 (fibrinolytic activity) [1] | Structure (SMILES) | other results
42.3 µM | CC(C)=CCC/C(C)=C/CC[C@@]1(C)Oc2c(c(OCc3ccc(Br)cc3)cc3c2CN(CCC[C@H](C(=O)OCc2ccc(Br)cc2)N2Cc4c(cc(OCc5ccc(Br)cc5)c5c4O[C@](C)(CC/C=C(\C)CCC=C(C)C)[C@H](O)C5)C2=O)C3=O)C[C@H]1O [F6] | expression level of IL-1 [2]: obviously higher than that of blank, but it was less than that of FGFC1; fibrinolytic activity relative to FGFC1 ([1]; ratio of EC50 vs FGFC1): 2.72 fold; cytotoxicity on HeLa cell lines [3]: moderate cytotoxicity; expression level of Fas [4]: remarkably higher than that of the blank, but it was less than that of FGFC1
133.3 µM | CC(C)=CCC/C(C)=C/CC[C@@]1(C)Oc2c(c(OCc3ccc(OC(F)(F)F)cc3)cc3c2CN(CCC[C@H](C(=O)OCc2ccc(OC(F)(F)F)cc2)N2Cc4c(cc(OCc5ccc(OC(F)(F)F)cc5)c5c4O[C@](C)(CC/C=C(\C)CCC=C(C)C)[C@H](O)C5)C2=O)C3=O)C[C@H]1O [F5] | fibrinolytic activity (in words) [1]: markedly decreased the fibrinolytic activity
115.0 µM | CC(C)=CCC/C(C)=C/CC[C@@]1(C)Oc2c(c(O)cc3c2CN(CCC[C@H](C(=O)O)N2Cc4c(cc(O)c5c4O[C@](C)(CC/C=C(\C)CCC=C(C)C)[C@H](O)C5)C2=O)C3=O)C[C@H]1O [FGFC1, 2,5-Bis-[8-(4,8-dimethyl-nona-3,7-dienyl)-5,7-dihydroxy-8-methyl-3-keto-1,2,7,8-teraahydro-6H-pyran[a]isoindol-2-yl]-pentanoic acid, reference compound] | cytotoxicity on HeLa cell lines [3]: moderate cytotoxicity
119.6 µM | CC(C)=CCC/C(C)=C/CC[C@@]1(C)Oc2c(c(OCc3ccccc3Br)cc3c2CN(CCC[C@H](C(=O)OCc2ccccc2Br)N2Cc4c(cc(OCc5ccccc5Br)c5c4O[C@](C)(CC/C=C(\C)CCC=C(C)C)[C@H](O)C5)C2=O)C3=O)C[C@H]1O [F7] | fibrinolytic activity (in words) [1]: retained fibrinolytic activity

Second part, the compound before the results:

Structure (SMILES) | EC50 (fibrinolytic activity) [1] | other results
CC(C)=CCC/C(C)=C/CC[C@@]1(C)Oc2c(c(OCc3ccc(C#N)cc3)cc3c2CN(CCC[C@H](C(=O)OCc2ccc(C#N)cc2)N2Cc4c(cc(OCc5ccc(C#N)cc5)c5c4O[C@](C)(CC/C=C(\C)CCC=C(C)C)[C@H](O)C5)C2=O)C3=O)C[C@H]1O [F4] | 82.8 µM | –
COC(=O)[C@@H](CCCN1Cc2c(cc(OC)c3c2O[C@](C)(CC/C=C(\C)CCC=C(C)C)[C@H](O)C3)C1=O)N1Cc2c(cc(OC)c3c2O[C@](C)(CC/C=C(\C)CCC=C(C)C)[C@H](O)C3)C1=O [F1] | 59.7 µM | –
CCOC(=O)[C@@H](CCCN1Cc2c(cc(OCC)c3c2O[C@](C)(CC/C=C(\C)CCC=C(C)C)[C@H](O)C3)C1=O)N1Cc2c(cc(OCC)c3c2O[C@](C)(CC/C=C(\C)CCC=C(C)C)[C@H](O)C3)C1=O [F2] | 87.1 µM | –
CCCOC(=O)[C@@H](CCCN1Cc2c(cc(OCCC)c3c2O[C@](C)(CC/C=C(\C)CCC=C(C)C)[C@H](O)C3)C1=O)N1Cc2c(cc(OCCC)c3c2O[C@](C)(CC/C=C(\C)CCC=C(C)C)[C@H](O)C3)C1=O [F3] | 66.6 µM | –

Source: paper PMC8071544, “Synthesis and Bioactivities of Marine Pyran-Isoindolone Derivatives as Potential Antithrombotic Agents” (Marine Drugs, 2021)
